Measurements: US12187709B2 (Genentech, Inc., priority 2021, dated 2025)

Assays:
[1] = molecular target: c-Cbl (residues 47-435) (Homo sapiens (Human), UniProt P22681); experiment: c-Cbl SPR assay; assay type: binding; details: 20° C.
In short: (§1)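 SPR, multi-cycle, 6-pt 2-fold series, blanks flanking for double referencing; capture 1300-1500 RU; contact 60 s at 40 μl/min; dissoc. 120-1200 s (~4-5 half-lives). 1:1 fit. Chaser variant: single cycle, 5 conc., top 500 nM, 120 s contact, 450 s dissociation.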

[2] = molecular target: c-Cbl (Homo sapiens (Human), UniProt P22681); experiment: C-Cbl LCK Ub TR-FRET assay (C-cbl Lck HTRF); assay type: biochemical
In short: (§2)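 Detection reagents added, brief spin, 20 min RT. IC50 fit normalized to no-LCK (low) and DMSO (high) controls.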

[3] = molecular target: Cbl-b (Homo sapiens (Human), UniProt Q13191); experiment: Cbl-b LCK Ub TR-FRET assay (Cbl-b Lck HTRF); assay type: biochemical; details: for IC50: Cbl-b LCK Ub TR-FRET; for fold-selectivity (Cbl-b over C-cbl): ratio C-cbl Lck HTRF IC50 / Cbl-b Lck HTRF IC50
In short: as §2

[4] = molecular target: Human Cbl-b (residues 40-426) (Homo sapiens (Human), UniProt Q13191); experiment: Cbl-b SPR assay; assay type: binding; details: for Fold of selectivity: C-cbl SPR Kd vs Cbl-b SPR Kd; for Kd: SPR, 20° C.
In short: as §1

Chain of c-Cbl (P22681 47-435): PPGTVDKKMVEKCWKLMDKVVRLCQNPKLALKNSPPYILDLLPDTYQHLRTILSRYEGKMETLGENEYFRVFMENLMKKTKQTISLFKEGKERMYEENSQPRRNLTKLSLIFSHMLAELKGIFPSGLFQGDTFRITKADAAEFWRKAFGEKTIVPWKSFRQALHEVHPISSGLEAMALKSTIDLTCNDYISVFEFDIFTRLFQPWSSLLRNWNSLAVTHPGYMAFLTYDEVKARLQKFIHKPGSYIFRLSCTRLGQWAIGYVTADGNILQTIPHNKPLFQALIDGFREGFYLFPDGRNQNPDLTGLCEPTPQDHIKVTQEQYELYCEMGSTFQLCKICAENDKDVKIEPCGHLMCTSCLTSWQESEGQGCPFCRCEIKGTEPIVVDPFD
Chain of c-Cbl (residues 47-435) (P22681 47-435): as above
Chain of Human Cbl-b (residues 40-426) (Q13191 40-426): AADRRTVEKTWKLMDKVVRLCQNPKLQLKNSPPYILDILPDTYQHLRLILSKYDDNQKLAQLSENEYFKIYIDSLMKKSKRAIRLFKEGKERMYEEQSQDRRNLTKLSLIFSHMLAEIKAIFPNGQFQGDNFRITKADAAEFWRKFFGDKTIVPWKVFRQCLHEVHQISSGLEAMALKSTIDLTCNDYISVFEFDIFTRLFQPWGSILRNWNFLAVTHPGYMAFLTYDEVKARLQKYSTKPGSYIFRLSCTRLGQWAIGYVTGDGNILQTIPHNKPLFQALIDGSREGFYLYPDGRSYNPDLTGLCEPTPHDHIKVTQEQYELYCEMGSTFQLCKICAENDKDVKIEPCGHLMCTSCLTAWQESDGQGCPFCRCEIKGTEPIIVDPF
Chain of Cbl-b (Q13191 40-426): as above

Row | SMILES | Kd [1] | IC50 [2] | IC50 [3] | fold-selectivity (Cbl-b over C-cbl) [3] | Fold of selectivity [4] | Kd [4]
1 | CCOc1cc(N2Cc3c(cc(CNC4(C)CCC4)cc3C(F)(F)F)C2=O)cc([C@]2(c3nncn3C)C[C@@H](C)C2)c1 [Compound 181, 2-(3-ethoxy-5-((1s,3s)-3-methyl-1-(4-methyl-4H-1,2,4-triazol-3-yl)cyclobutyl)phenyl)-6-(((1-methylcyclobutyl)amino)methyl)-4-(trifluoromethyl)isoindolin-1-one] | 0.74 nM | 8.3 nM | 9.8 nM | 0.85x | 2.0× | 0.37 nM
2 | CCOc1cc(C2(c3nncn3C)CC(F)(F)C2)cc(N2Cc3c(cc(CNC4(C)CCC4)cc3C(F)(F)F)C2=O)n1 [Compound 182, 2-(4-(3,3-difluoro-1-(4-methyl-4H-1,2,4-triazol-3-yl)cyclobutyl)-6-ethoxypyridin-2-yl)-6-(((1-methylcyclobutyl)amino)methyl)-4-(trifluoromethyl)isoindolin-1-one] | 0.85 nM | 11 nM | 11 nM | 1.0x | 2.7× | 0.35 nM
3 | Cn1cnnc1[C@]1(c2cc(NC3CCCC3)cc(N3Cc4c(cc(CNC5(C)CCC5)cc4C(F)(F)F)C3=O)c2)C[C@@H](C)C1 [Compound 183, 2-(3-(cyclopentylamino)-5-((1r,3r)-3-methyl-1-(4-methyl-4H-1,2,4-triazol-3-yl)cyclobutyl)phenyl)-6-(((1-methylcyclobutyl)amino)methyl)-4-(trifluoromethyl)isoindolin-1-one] | 18 nM | 58 nM | 18 nM | 3.4x | 5.8× | 3.2 nM
4 | Cn1cnnc1[C@]1(c2cc(OC3CCCC3)cc(N3Cc4c(cc(CNC5(C)CCC5)cc4C(F)(F)F)C3=O)c2)C[C@H](C)C1 [Compound 186, 2-(3-(cyclopentyloxy)-5-((1s,3s)-3-methyl-1-(4-methyl-4H-1,2,4-triazol-3-yl)cyclobutyl)phenyl)-6-(((1-methylcyclobutyl)amino)methyl)-4-(trifluoromethyl)isoindolin-1-one] | 72 nM | 100 nM | 35 nM | 2.9x | 5.2× | 13 nM
5 | Cn1cnnc1C1(c2cc(NCCC#N)nc(N3Cc4c(cc(CNC5(C)CCC5)cc4C(F)(F)F)C3=O)c2)CC2(COC2)C1 [Compound 187, 3-((4-(6-(4-methyl-4H-1,2,4-triazol-3-yl)-2-oxaspiro[3.3]heptan-6-yl)-6-(6-(((1-methylcyclobutyl)amino)methyl)-1-oxo-4-(trifluoromethyl)isoindolin-2-yl)pyridin-2-yl)amino)propanenitrile] | 15 nM | 22 nM | 11 nM | 1.0x | 15× | 0.95 nM
6 | Cn1cnnc1C1(c2cc(NC3CCCC3)nc(N3Cc4c(cc(CNC5(C)CCC5)cc4C(F)(F)F)C3=O)c2)CC2(COC2)C1 [Compound 188, 2-(6-(cyclopentylamino)-4-(6-(4-methyl-4H-1,2,4-triazol-3-yl)-2-oxaspiro[3.3]heptna-6-yl)pyridin-2-yl)-6-(((1-methylcyclobutyl)amino)methyl)-4-(trifluoromethyl)isoindolin-1-one] | 100 nM | 180 nM | 16 nM | 11x | 22× | 4.7 nM
7 | CCOc1cc(N2Cc3c(cc(CNC4(C)CCC4)cc3C(F)(F)F)C2=O)cc([C@]2(c3nncn3C)C[C@H](C)C2)c1 [Compound 189, 2-(3-ethoxy-5-((1r,3r)-3-methyl-1-(4-methyl-4H-1,2,4-triazol-3-yl)cyclobutyl)phenyl)-6-(((1-methylcyclobutyl)amino)methyl)-4-(trifluoromethyl)isoindolin-1-one] | 1 nM | 4.1 nM | 7.2 nM | 0.56x | 3.3× | 0.3 nM
8 | CO[C@H]1C[C@@](c2cccc(N3Cc4c(cccc4C(F)(F)F)C3=O)c2)(c2nncn2C)C1 [Compound 190, 2-(3-((1s,3s)-3-methoxy-1-(4-methyl-4H-1,2,4-triazol-3-yl)cyclobutyl)phenyl)-4-(trifluoromethyl)isoindolin-1-one] | 11000 nM | 16000 nM | 7800 nM | 2.0x | 2.2× | 5200 nM
9 | C[C@H](CC#N)Nc1cc(C2(c3nncn3C)CC3(COC3)C2)cc(N2Cc3c(cc(CNC4(C)CCC4)cc3C(F)(F)F)C2=O)n1 [Compound 192, (R)-3-((4-(6-(4-methyl-4H-1,2,4-triazol-3-yl)-2-oxaspiro[3.3]heptan-6-yl)-6-(6-(((1-methylcyclobutyl)amino)methyl)-1-oxo-4-(trifluoromethyl)isonidolin-2-yl)pyridin-2-yl)amino)butanenitrile] | 1.7 nM | 9.2 nM | 13 nM | 0.7x | 5.7× | 0.3 nM
10 | Cn1cnnc1C1(c2cc(OC3CCCC3)nc(N3Cc4c(cc(CNC5(C)CCC5)cc4C(F)(F)F)C3=O)c2)CC2(COC2)C1 [Compound 193] | 320 nM | 420 nM | 36 nM | 11x | 27× | 12 nM
11 | C[C@@H](CC#N)Nc1cc(C2(c3nncn3C)CC3(COC3)C2)cc(N2Cc3c(cc(CNC4(C)CCC4)cc3C(F)(F)F)C2=O)n1 [Compound 194, (S)-3-((4-(6-(4-methyl-4H-1,2,4-triazol-3-yl)-2-oxaspiro[3.3]heptan-6-yl)-6-(6-(((1-methylcyclobutyl)amino)methyl)-1-oxo-4-(trifluoromethyl)isoindolin-2-yl)pyridin-2-yl)amino)butanenitrile] | 16 nM | 34 nM | 13 nM | 2.5x | 8.3× | 1.9 nM
12 | Cn1cnnc1[C@]1(c2cc(OC3CCCC3)cc(N3Cc4c(cc(CNC5(C)CCC5)cc4C(F)(F)F)C3=O)c2)C[C@@H](C)C1 [Compound 195, 2-(3-(cyclopentyloxy)-5-((1r,3r)-3-methyl-1-(4-methyl-4H-1,2,4-triazol-3-yl)cyclobutyl)phenyl)-6-(((1-methylcyclobutyl)amino)methyl)-4-(trifluoromethyl)isoindolin-1-one] | 110 nM | 84 nM | 36 nM | 2.4x | 7.6× | 15 nM
13 | CO[C@H]1C[C@](c2cccc(N3Cc4c(cccc4C(F)(F)F)C3=O)c2)(c2nncn2C)C1 [Compound 196, 2-(3-((1r,3r)-3-methoxy-1-(4-methyl-4H-1,2,4-triazol-3-yl)cyclobutyl)phenyl)-4-(trifluoromethyl)isoindolin-1-one] | 9900 nM | 8300 nM | 1500 nM | 5.6x | 5.5× | 1800 nM
14 | Cn1cnnc1C1(c2cccc(N3Cc4c(cc(CNC5(C)CCC5)cc4C(F)F)C3=O)c2)CC2(COC2)C1 [Compound 197, 4-(difluoromethyl)-2-(3-(6-(4-methyl-4H-1,2,4-triazol-3-yl)-2-oxaspiro[3.3]heptan-6-yl)phenyl)-6-(((1-methylcyclobutyl)amino)methyl)isoindolin-1-one] | 110 nM | 160 nM | 37 nM | 4.5x | 9.2× | 12 nM
15 | CC(C)[C@H]1CN(C)CCN1Cc1cc2c(c(C(F)F)c1)CN(c1cccc(C3(c4nncn4C)CC4(COC4)C3)c1)C2=O.O=CO.O=CO [Compound 198, (S)-4-(difluoromethyl)-6-((2-isopropyl-4-methylpiperazin-1-yl)methyl)-2-(3-(6-(4-methyl-4H-1,2,4-triazol-3-yl)-2-oxaspiro[3.3]heptan-6-yl)phenyl)isoindolin-1-one formate] | 120 nM | 200 nM | 46 nM | 4.4x | 5.1× | 29 nM
16 | COc1cc(N2Cc3c(cc(CNC4(C)CCC4)cc3C(F)(F)F)C2=O)cc([C@]2(c3nncn3C)C[C@@H](OC)C2)c1 [Compound 200, 2-(3-methoxy-5-((1s,3s)-3-methoxy-1-(4-methyl-4H-1,2,4-triazol-3-yl)cyclobutyl)phenyl)-6-(((1-methylcyclobutyl)amino)methyl)-4-(trifluoromethyl)isoindolin-1-one] | 19 nM | 40 nM | 24 nM | 1.7x | 2.4× | 8 nM
17 | COc1cc(N2Cc3c(cc(CNC4(C)CCC4)cc3C(F)(F)F)C2=O)cc([C@]2(c3nncn3C)C[C@H](OC)C2)c1 [Compound 201, 2-(3-methoxy-5-((1r,3r)-3-methoxy-1-(4-methyl-4H-1,2,4-triazol-3-yl)cyclobutyl)phenyl)-6-(((1-methylcyclobutyl)amino)methyl)-4-(trifluoromethyl)isoindolin-1-one] | 11 nM | 18 nM | 12 nM | 1.5x | 3.6× | 3 nM
